Assay results: US4965351A, “4-demethoxy-4-amino-anthracyclines” (Farmitalia Carlo Erba S.R.L., priority 1987, dated 1990)
In brackets after ≈: the same amount, converted by molar mass. Where two headings read alike, the source gives them in different places.

Experiments:
[1] = test system: human colon adenocarcinoma cells sensitive (LoVo) to doxorubicin; experiment: Colony inhibition test after 4 h treatment, LoVo (in vitro cytotoxicity); format: cell-based; settings: read-out: LoVo ID50
Description: (§1) The glycosides are antitumor agents. The activity of a representative compound of formula (I), 4-demethoxy-4-amino-daunorubicin (Ia), has been assessed by comparing its in vitro cytotoxicity against that of daunorubicin (DNR) in human colon adenocarcinoma cells sensitive (LoVo) or resistant (LoVo/DX) to doxorubicin.
(§2) Colony inhibition test after 4 h. treatment.

[2] = test system: human colon adenocarcinoma cells resistant (LoVo/DX) to doxorubicin; experiment: Colony inhibition test after 4 h treatment, LoVo/DX (in vitro cytotoxicity); format: cell-based; settings: read-out: LoVo/DX ID50
Description: as §1, §2

[3] = test system: disseminated Gross leukaemia; experiment: In vivo activity against disseminated Gross leukaemia in mice, treatment i.v. on day 1 after tumor inoculum
Text: The in vivo activities of (Ia) and DNR against disseminated Gross leukaemia in mice also determined.
Treatment i.v on day 1 after tumor inoculum
TOX represents toxic death

Structure (SMILES) | IC50 ([1]; LoVo, 4 h) [µg/mL] | IC50 [2] [µg/mL] | T/C % ([3]; 10 mg/Kg i.v. on day 1) [%] | TOX (toxic death) ([3]; 10 mg/Kg i.v. on day 1) | T/C % ([3]; 15 mg/Kg i.v. on day 1) [%] | TOX (toxic death) ([3]; 15 mg/Kg i.v. on day 1) | T/C % ([3]; 22.5 mg/Kg i.v. on day 1) [%] | TOX (toxic death) ([3]; 22.5 mg/Kg i.v. on day 1) | IC50 ([1]; LoVo cells (doxorubicin-sensitive), 4 h treatment, colony inhibition) [µg/mL] | T/C % ([3]; 1.6 mg/Kg i.v. on day 1) [%] | TOX (toxic death) ([3]; 1.6 mg/Kg i.v. on day 1) | T/C % ([3]; 1.9 mg/Kg i.v. on day 1) [%] | TOX (toxic death) ([3]; 1.9 mg/Kg i.v. on day 1) | T/C % ([3]; 2.29 mg/Kg i.v. on day 1) [%] | TOX (toxic death) ([3]; 2.29 mg/Kg i.v. on day 1)
COc1cccc2c1C(=O)c1c(O)c3c(c(O)c1C2=O)C[C@@](O)(C(C)=O)C[C@@H]3O[C@H]1C[C@H](N)[C@H](O)[C@H](C)O1 [DNR, daunorubicin] | 50.3 (≈ 95.4 µM) | 1800 (≈ 3420 µM) | 133 | 0/10 | 167 | 0/10 | 200 | 1/10 |  |  |  |  |  |  | 
CC(=O)[C@]1(O)Cc2c(O)c3c(c(O)c2[C@@H](O[C@H]2C[C@H](N)[C@H](O)[C@H](C)O2)C1)C(=O)c1c(N)cccc1C3=O [Ia, 4-demethoxy-4-amino-daunorubicin] |  | 99 (≈ 193 µM) |  |  |  |  |  |  | 0.7 (≈ 1.37 µM) | 183 | 0/10 | 192 | 0/10 | 200 | 1/10
